Laboratory results reported in PubChem BioAssay AID330 (DTP/NCI, 2004).
Values joined by “and” are separate entries in the source; they are usually repeats but may differ in a detail not shown here. Equal entries are not always repeated. Toxic doses and inconclusive results are not listed. How the source made its calls: active means survival T/C of 150% or more; inactive means T/C below 125% in these data.

System: P388 leukemia ip, CD2F1 mice, survival T/C
Assay: NCI In Vivo Anticancer Drug Screen. Data for tumor model P388 Leukemia (intraperitoneal) in CD2F1 (CDF1) mice
Settings: endpoint: median survival time, higher = longer survival
In short: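 Mice carrying the transplanted tumor received test compound or vehicle. Survival was recorded in each group, and the value is the treated-group measurement divided by that of the vehicle-treated control group.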

[1] = dose: 12.5 mg/kg/injection, schedule: Q01DX005 (ip), vehicle: Klucel (hydroxypropylcellulose) (HPC)
[2] = dose: 50.0 mg/kg/injection, schedule: Q01DX005 (ip), vehicle: Klucel (hydroxypropylcellulose) (HPC)
[3] = dose: 60.0 mg/kg/injection, schedule: Q01DX005 (ip), vehicle: saline with Tween-80
[4] = dose: 120.0 mg/kg/injection, schedule: Q01DX005 (ip), vehicle: saline with Tween-80
[5] = dose: 50.0 mg/kg/injection, schedule: Q01DX005 (ip), vehicle: saline
[6] = dose: 100.0 mg/kg/injection, schedule: Q01DX005 (ip), vehicle: saline
[7] = dose: 50.0 mg/kg/injection, schedule: Q04DX003 (ip), vehicle: saline with Tween-80
[8] = dose: 100.0 mg/kg/injection, schedule: Q04DX003 (ip), vehicle: saline with Tween-80
[9] = dose: 200.0 mg/kg/injection, schedule: Q04DX003 (ip), vehicle: saline with Tween-80
[10] = dose: 50.0 mg/kg/injection, schedule: Q01DX009 (ip), vehicle: Klucel (hydroxypropylcellulose) (HPC)
[11] = dose: 100.0 mg/kg/injection, schedule: Q01DX009 (ip), vehicle: Klucel (hydroxypropylcellulose) (HPC)
[12] = dose: 200.0 mg/kg/injection, schedule: Q01DX009 (ip), vehicle: Klucel (hydroxypropylcellulose) (HPC)
[13] = dose: 60.0 mg/kg/injection, schedule: Q01DX005 (ip), vehicle: Klucel (hydroxypropylcellulose) (HPC)
[14] = dose: 120.0 mg/kg/injection, schedule: Q01DX005 (ip), vehicle: Klucel (hydroxypropylcellulose) (HPC)
[15] = dose: 240.0 mg/kg/injection, schedule: Q01DX005 (ip), vehicle: Klucel (hydroxypropylcellulose) (HPC)
[16] = dose: 50.0 mg/kg/injection, schedule: Q01DX005 (ip), vehicle: saline with Tween-80
[17] = dose: 100.0 mg/kg/injection, schedule: Q01DX005 (ip), vehicle: saline with Tween-80
[18] = dose: 200.0 mg/kg/injection, schedule: Q01DX005 (ip), vehicle: saline with Tween-80
[19] = dose: 200.0 mg/kg/injection, schedule: Q01DX005 (ip), vehicle: saline
[20] = dose: 25.0 mg/kg/injection, schedule: Q01DX005 (ip), vehicle: saline
[21] = dose: 25.0 mg/kg/injection, schedule: Q01DX005 (ip), vehicle: Klucel (hydroxypropylcellulose) (HPC)
[22] = dose: 100.0 mg/kg/injection, schedule: Q01DX005 (ip), vehicle: Klucel (hydroxypropylcellulose) (HPC)
[23] = dose: 15.0 mg/kg/injection, schedule: Q01DX005 (ip), vehicle: saline with Tween-80
[24] = dose: 30.0 mg/kg/injection, schedule: Q01DX005 (ip), vehicle: saline with Tween-80
[25] = dose: 240.0 mg/kg/injection, schedule: Q01DX005 (ip), vehicle: saline with Tween-80
[26] = dose: 200.0 mg/kg/injection, schedule: Q01DX005 (ip), vehicle: Klucel (hydroxypropylcellulose) (HPC)

Measured: T/C

CCCCc1ccc2nccc(N/N=C/c3ccc(OC)c4ccccc34)c2c1
inactive: dose: 3.12 mg/kg/injection, schedule: Q01DX005 (ip), vehicle: Klucel (hydroxypropylcellulose) (HPC) 100 % of control | dose: 6.25 mg/kg/injection, schedule: Q01DX005 (ip), vehicle: Klucel (hydroxypropylcellulose) (HPC) 100 % of control | [1] 93 % of control and 94 % of control | [2] 87 % of control

O=C(O)C1=CC2C=C(Cl)C=CC2OC1=O (stereo not drawn)
inactive: [3] 100 % of control | [4] 100 % of control

CCCCCCCCCOCC(COP(=O)([O-])OCC[N+](C)(C)C)OC (stereo not drawn)
inactive: [5] 99 % of control | [6] 103 % of control

COC(=O)C(NC(N)=O)SC (stereo not drawn)
inactive: [7] 96 % of control | [8] 100 % of control | [9] 99 % of control

N#Cc1ccc(N2C(=O)c3ccc(C(O)(C(F)(F)F)C(F)(F)F)cc3C2=O)cc1C#N
inactive: [10] 103 % of control | [11] 103 % of control | [12] 99 % of control

CN1C(=O)[C@@H]2N(N(C)C1=O)[C@@]1(Br)C(=O)NC(=O)[C@@]21Br
inactive: [13] 97 % of control | [14] 100 % of control | [15] 91 % of control

N#CC1=C(O)/C(=C\c2ccc(Cl)cc2)N=C1N
inactive: [16] 88 % of control | [17] 91 % of control | [18] 94 % of control

CC1(C)SSCC1=O
inactive: [5] 104 % of control | [6] 109 % of control | [19] 108 % of control

CCOC(=O)Nc1cc(Cl)ccc1O
inactive: [8] 90 % of control | [9] 90 % of control | dose: 400.0 mg/kg/injection, schedule: Q04DX003 (ip), vehicle: saline with Tween-80 90 % of control

CCOC(=O)Nc1nc2ccccc2n1CN1CCN(Cn2c(NC(=O)OCC)nc3ccccc32)CC1
inactive: [20] 108 % of control | [5] 111 % of control | [6] 121 % of control | [19] 122 % of control

CC(C)CC(NC(=O)CN)C(=O)O (stereo not drawn)
inactive: [20] 103 % of control | dose: 25.0 mg/kg/injection, schedule: Q01DX009 (ip), vehicle: saline with Tween-80 95 % of control | [5] 101 % of control | dose: 50.0 mg/kg/injection, schedule: Q01DX009 (ip), vehicle: saline with Tween-80 89 % of control | [6] 103 % of control | dose: 100.0 mg/kg/injection, schedule: Q01DX009 (ip), vehicle: saline with Tween-80 88 % of control | [19] 99 % of control | dose: 200.0 mg/kg/injection, schedule: Q01DX009 (ip), vehicle: saline with Tween-80 91 % of control

O=C1c2c(O)cccc2C(C2OC(CO)C(O)C(O)C2O)c2cc(CO)cc(O)c21 (stereo not drawn)
inactive: [21] 101 % of control | dose: 50.0 mg/kg/injection, schedule: Q01DX001 (ip), vehicle: water 104 % of control | [2] 104 % of control and 107 % of control | dose: 100.0 mg/kg/injection, schedule: Q01DX001 (ip), vehicle: water 104 % of control | [22] 117 % of control and 110 % of control | dose: 200.0 mg/kg/injection, schedule: Q01DX001 (ip), vehicle: water 104 % of control

Nc1nc(Cl)c(N=Nc2ccccc2)c(=O)[nH]1
inactive: dose: 7.5 mg/kg/injection, schedule: Q01DX005 (ip), vehicle: saline with Tween-80 111 % of control | [23] 105 % of control | [24] 99 % of control and 108 % of control | [3] 101 % of control and 109 % of control

S=C=[N][Sn]([N]=C=S)([c]1ccccc1)[c]1ccccc1.c1ccc2nc(-c3ccc4ccccc4n3)ccc2c1
inactive: dose: 1.87 mg/kg/injection, schedule: Q01DX005 (ip), vehicle: Klucel (hydroxypropylcellulose) (HPC) 97 % of control | dose: 3.75 mg/kg/injection, schedule: Q01DX005 (ip), vehicle: Klucel (hydroxypropylcellulose) (HPC) 109 % of control and 110 % of control

CCC1C(=O)OCCOCCOCCOCCOCCOC1=O
inactive: [10] 100 % of control | [11] 107 % of control | [12] 99 % of control

COC1(OC)C=NNc2nccn21
inactive: [3] 100 % of control | [4] 96 % of control | [25] 104 % of control

FC(F)(c1nc2ccccc2[nH]1)C(F)(F)C(F)(F)c1nc2ccccc2[nH]1
inactive: [16] 95 % of control | [17] 89 % of control | [18] 88 % of control

O=C1NC(=O)/C(=C\c2ccccc2)C2=C1CCCC2
inactive: [1] 103 % of control | [21] 103 % of control | [2] 108 % of control

N#CN=C1N=S(=O)(c2ccccc2)c2ccccc21 (stereo not drawn)
inactive: [10] 103 % of control | [11] 100 % of control | [12] 101 % of control

Cc1ccc2c(c1)CCCN2C=O
inactive: [7] 105 % of control | [8] 100 % of control | [9] 110 % of control

NC(CC1=CS(=O)(=O)c2ccc(Cl)cc21)C(=O)O (stereo not drawn)
inactive: dose: 25.0 mg/kg/injection, schedule: Q01DX001 (ip), vehicle: Klucel (hydroxypropylcellulose) (HPC) 99 % of control | dose: 50.0 mg/kg/injection, schedule: Q01DX001 (ip), vehicle: Klucel (hydroxypropylcellulose) (HPC) 96 % of control | dose: 100.0 mg/kg/injection, schedule: Q01DX001 (ip), vehicle: Klucel (hydroxypropylcellulose) (HPC) 101 % of control

O=C(O)C1OC(N(O)c2ccc(Oc3ccc(Cl)cc3)cc2)C(O)C(O)C1O (stereo not drawn)
inactive: [3] 106 % of control | [4] 100 % of control | [25] 100 % of control

CCC1(O)C(=O)Nc2ccccc2C1=O (stereo not drawn)
inactive: [13] 98 % of control | [14] 88 % of control | [15] 98 % of control

Cn1c2cc3c(c(O)c2c(=O)c2cccnc21)C=CC(C)(C)O3
inactive: [2] 104 % of control | [22] 91 % of control | [26] 93 % of control

Oc1c(Cl)c2nc3ccccc3nc2c2ccccc12
inactive: [23] 100 % of control | [24] 102 % of control | [3] 88 % of control and 98 % of control

[Cl][Pt+2][Cl].[NH-]C(c1ccc(Cl)cc1)C([NH-])c1ccc(Cl)cc1 (stereo not drawn)
inactive: dose: 6.25 mg/kg/injection, schedule: Q04DX002 (ip), vehicle: saline with Tween-80 124 % of control

COC(=O)C1=[N+]([O-])OC(C(=O)OC)C1c1ccc(NC(C)=O)cc1 (stereo not drawn)
inactive: [16] 98 % of control | [17] 93 % of control | [18] 90 % of control

Cc1noc(C)c1C(=O)CCCCC(=O)O
inactive: [3] 102 % of control | [4] 95 % of control | [25] 104 % of control

CCCCCCC[N+]1([O-])CCOCC1
inactive: dose: 50.0 mg/kg/injection, schedule: Q01DX009 (ip), vehicle: saline 99 % of control | dose: 100.0 mg/kg/injection, schedule: Q01DX009 (ip), vehicle: saline 100 % of control | dose: 200.0 mg/kg/injection, schedule: Q01DX009 (ip), vehicle: saline 97 % of control

CCOC(=O)c1c(-c2ccccc2)nn(CC(N)=O)c1CO
inactive: [16] 100 % of control | [17] 105 % of control | [18] 103 % of control

COC(=O)[C@]1(C)CCC[C@]2(C)c3ccc(C(C)C)cc3C(=O)C[C@@H]12
inactive: [3] 95 % of control | [4] 94 % of control | [25] 93 % of control

CC1(C)OC2OC(C3COC(=O)O3)C(O)C2O1 (stereo not drawn)
inactive: [2] 95 % of control | [22] 98 % of control | [26] 101 % of control

BrC=C(Br)Br
inactive: [16] 104 % of control | [17] 100 % of control | [18] 95 % of control

O=c1n(-c2ccccc2)c2nc3ccccc3nc2n1-c1ccc(Cl)c(Cl)c1
inactive: [16] 90 % of control | [17] 100 % of control | [18] 109 % of control
